This passage reports LiPE, pIC50 and IC50 results from paper PMC5840146, “Structure-Activity Relationship Analysis of 3-Phenylcoumarin-Based Monoamine Oxidase B Inhibitors” (Frontiers in Chemistry, 2018).

The target in assay [1] is T1, MAO-B (Homo sapiens, UniProt P27338).
T1 construct: purchased Sigma-Aldrich
T1 sequence (P27338 1-520): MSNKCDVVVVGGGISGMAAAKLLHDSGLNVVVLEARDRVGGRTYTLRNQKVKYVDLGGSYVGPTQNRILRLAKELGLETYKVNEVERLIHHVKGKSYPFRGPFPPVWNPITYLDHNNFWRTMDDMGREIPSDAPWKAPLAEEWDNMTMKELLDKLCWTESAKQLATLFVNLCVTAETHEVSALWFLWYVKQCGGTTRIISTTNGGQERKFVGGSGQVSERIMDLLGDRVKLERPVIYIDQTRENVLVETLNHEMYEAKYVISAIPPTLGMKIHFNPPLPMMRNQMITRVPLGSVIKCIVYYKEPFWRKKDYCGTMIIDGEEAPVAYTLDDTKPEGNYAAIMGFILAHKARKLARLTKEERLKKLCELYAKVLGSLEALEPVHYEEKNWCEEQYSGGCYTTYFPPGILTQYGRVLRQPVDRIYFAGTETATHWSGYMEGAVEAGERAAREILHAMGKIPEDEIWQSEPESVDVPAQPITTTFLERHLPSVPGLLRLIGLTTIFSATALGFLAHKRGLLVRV
In words: MAO-B inhibition of prior 3-phenylcoumarins (literature data). The assay is classed as biochemical. Particulars: LiPE = pIC50 - QPlogPo/w, literature IC50.

Assay [2] addresses T1, MAO-B. Particulars: cited from earlier work; for pIC50: MAO-B; for IC50: read-out: MAO-B inhibition IC50.
The mark [3] stands for this setting: from literature IC50 ref Matos et al., 2011a.
[4] abbreviates: prior 3-phenylcoumarins ref Matos et al., 2011a.
Setting [5] is: from literature IC50 ref Matos et al., 2009, 2011a.
Setting [6] is: prior 3-phenylcoumarins ref Matos et al., 2009, 2011a.
Setting [7] is: from literature IC50 ref Matos et al., 2010.
Setting [8] is: prior 3-phenylcoumarins ref Matos et al., 2010.
Setting [9] is: from literature IC50 ref Matos et al., 2011b.
Setting [10] is: prior 3-phenylcoumarins ref Matos et al., 2011b.
Where [11] appears, read: from literature IC50 ref Serra et al., 2012.
Where [12] appears, read: prior 3-phenylcoumarins ref Serra et al., 2012.

Like-named read-outs stand apart in the source and are kept apart here.

In assay [1], `COc1ccc(-c2cc3cc(C)ccc3oc2=O)cc1OC` [CHEMBL1835230] registered a LiPE of 5.04. The pIC50 in assay [2] (setting [3]) is reported as 8.56. In addition, the IC50 in assay [2] (setting [4]) was 2.73 nM.

In assay [1], `O=c1oc2ccccc2cc1-c1ccccc1` [CHEMBL510349] displayed a LiPE of 1.47. Further, the negative logarithm of the IC50 (pIC50) in assay [2] (from literature IC50 ref Viña et al., 2012b) was 4.93. Also, the half-inhibitory concentration (IC50) in assay [2] (prior 3-phenylcoumarins ref Viña et al., 2012b) is 11800 nM.

Regarding `COc1cc(OC)cc(-c2cc3cc(C)ccc3oc2=O)c1` [CHEMBL1783715], the LiPE in assay [1] worked out at 4.52. Also, the pIC50 in assay [2] (setting [5]) is given as 8.05. The half-inhibitory concentration (IC50) in assay [2] (setting [6]) is 8.98 nM.

Compound `COc1ccc2oc(=O)c(-c3cccc(C)c3)cc2c1` [CHEMBL1835223] returned a LiPE in assay [1] of 4.30. Also, the pIC50 in assay [2] (setting [3]) is 7.77. Moreover, the IC50 in assay [2] (setting [4]) is 17.1 nM.

Consider `COc1ccc(-c2cc3cc(C)cc(Br)c3oc2=O)cc1` [CHEMBL1221980], for which the LiPE in assay [1] was 1.42. Moreover, the pIC50 in assay [2] (setting [7]) is 5.49. Further, in assay [2] (setting [8]), the IC50 was 3230 nM.

Take `COc1cc(-c2cc3cc(C)cc(Br)c3oc2=O)cc(OC)c1OC` [CHEMBL1221982]: in assay [1], the LiPE is recorded as 1.09. For the same compound, the negative-log IC50 (pIC50) in assay [2] (setting [7]) is 5.31. For the same compound, the half-inhibitory concentration (IC50) in assay [2] (setting [8]) was 4890 nM.

`COc1cc(Br)cc2cc(-c3ccccc3)c(=O)oc12` [CHEMBL1777814]: the LiPE in assay [1] amounted to 3.35. Also, in assay [2] (setting [9]), the pIC50 was 7.08. Further, in assay [2] (setting [10]), the IC50 was 83.5 nM.

Consider `COc1cc(-c2cc3cc(C)ccc3oc2=O)cc(OC)c1OC` [CHEMBL1783716], for which the LiPE in assay [1] was 3.18. Moreover, the pIC50 in assay [2] (setting [5]) was 6.79. Also, the 50% inhibitory concentration (IC50) in assay [2] (setting [6]) was 161 nM.

For `COc1ccc(-c2cc3cc(C)ccc3oc2=O)cc1` [CHEMBL572233], in assay [1], the LiPE is 4.41. Moreover, the negative logarithm of the IC50 (pIC50) in assay [2] (setting [5]) is reported as 7.88. Besides, the 50% inhibitory concentration (IC50) in assay [2] (setting [6]) is 13.1 nM.

`CC(=O)COc1cccc(-c2cc3cc(C)ccc3oc2=O)c1` [CHEMBL1835328]: the LiPE in assay [1] is recorded as 3.80. Moreover, the pIC50 in assay [2] (setting [3]) is given as 6.74. In addition, in assay [2] (setting [4]), the IC50 is 180 nM.

In turn, `COc1cccc(-c2cc3cc(C)ccc3oc2=O)c1` [CHEMBL570731] displayed a LiPE in assay [1] of 5.64. Further, the negative logarithm of the IC50 (pIC50) in assay [2] (setting [3]) is recorded as 9.10. The IC50 in assay [2] (setting [4]) is 0.8 nM.

`COc1ccc(-c2cc3cc(Br)cc(OC)c3oc2=O)cc1` [CHEMBL1777845]: the LiPE in assay [1] was 5.09. In addition, the negative logarithm of the IC50 (pIC50) in assay [2] (setting [9]) was 8.87. The IC50 in assay [2] (setting [10]) is 1.35 nM.

`Cc1cc(Br)c2oc(=O)c(-c3ccccc3)cc2c1` [CHEMBL1221930] yielded a LiPE in assay [1] of 0.95. Moreover, the pIC50 in assay [2] (setting [7]) is on record as 4.96. For the same compound, the 50% inhibitory concentration (IC50) in assay [2] (setting [8]) is 11000 nM.

As for `CC(=O)COc1ccc2oc(=O)c(-c3ccc(C)cc3)cc2c1` [CHEMBL1835226], the LiPE in assay [1] came to 2.32. The pIC50 in assay [2] (setting [3]) is reported as 5.26. In assay [2] (setting [4]), the IC50 was 5520 nM.

In assay [1], `Cc1ccc(-c2cc3cc(OC4CCCC4)ccc3oc2=O)cc1` [CHEMBL1835227] showed a LiPE of 0.14. For the same compound, in assay [2] (setting [3]), the pIC50 was 4.84. Also, in assay [2] (setting [4]), the half-maximal inhibitory concentration (IC50) is 14500 nM.

For `Cc1cccc(-c2cc3cc(C)ccc3oc2=O)c1` [CHEMBL1835229], the LiPE in assay [1] is on record as 4.09. Moreover, the pIC50 in assay [2] (setting [3]) is given as 7.82. Moreover, the IC50 in assay [2] (setting [4]) is 15 nM.

For `COc1ccc(-c2c(O)c3cc(C)ccc3oc2=O)cc1Cl` [CHEMBL1934676], the LiPE in assay [1] turned out to be 0.88. The negative logarithm of the IC50 (pIC50) in assay [2] (setting [11]) was 4.37. Further, the IC50 in assay [2] (setting [12]) is 42700 nM.

The compound `COc1cc(OC)c(Br)c(-c2cc3cc(C)ccc3oc2=O)c1` [CHEMBL1835233] registered a LiPE in assay [1] of 0.20. In assay [2] (setting [3]), the pIC50 was 4.27. In assay [2] (setting [4]), the IC50 is 54000 nM.

`COc1cc(-c2cc3cc(C)ccc3oc2=O)ccc1Br` [CHEMBL1835232] showed a LiPE in assay [1] of 4.41. Also, in assay [2] (setting [3]), the pIC50 is on record as 8.49. The IC50 in assay [2] (setting [4]) is 3.25 nM.

Take `COc1ccc(-c2c(O)c3cc(C)ccc3oc2=O)cc1` [CHEMBL1934673]: the LiPE in assay [1] turned out to be 1.53. In addition, the negative logarithm of the IC50 (pIC50) in assay [2] (setting [11]) is 4.49. In addition, in assay [2] (setting [12]), the IC50 was 32000 nM.

For the compound `Cc1ccc2oc(=O)c(-c3ccccc3Br)cc2c1` [CHEMBL1221929], the LiPE in assay [1] is 1.46. Besides, the negative-log IC50 (pIC50) in assay [2] (setting [7]) is reported as 5.37. Moreover, the IC50 in assay [2] (setting [8]) is 4300 nM.

In general, pIC50 refers to the negative decadic logarithm of the IC50, by convention in mol/L. As a reminder, the IC50 is the concentration that gives 50% inhibition.
